Test results from patent publication US20260069606A1, “Oxidative Stress and Diabetes Treatment with Cobinamide” (The Regents of the University of California, priority 2022, published 2026).

Key:
[1] = tested on: streptozotocin diabetic mice; assay: Fasting blood glucose and intraperitoneal glucose tolerance test; format: in vivo; conditions: fasting blood glucose and IPGTT after three months
Source text: The water was replenished twice a week.
Over the three-month treatment period, the non-diabetic mice gained an average of 4.1±0.8 g. while the diabetic mice lost an average of 0.3 g, with wide variation in weight change among the latter mice.

[2] = physiological conditions; 50 mM potassium phosphate pH 7.4, three-fold molar excess of reductant
Description: H9c2 cells were incubated for 30 min with vehicle, 2.5 μM cobinamide, or 5 μM rotenone, the latter in the absence or presence of 2.5 μM cobinamide, imisopasem, MnTBAP, or cobalamin; 5 μM MitoSOX was added during the last 10 min. The cells were incubated with 1 mg/ml DAPI for 3 min to counterstain nuclei, and then visualized under a fluorescence microscope. […] Equal-sized representative areas for each condition are shown for MitoSOX staining (red fluorescence) and the same area showing merged MitoSOX and DAPI staining. […] The amount of red fluorescence was quantified by Image J analysis. Data are the mean±SD of three independent experiments; in each experiment two separate equal-sized areas were analyzed containing ˜75 cells per area. […] H9c2 cells were incubated for 10 min with 10 μM JC-1, washed once with PBS, and then incubated for 30 min with vehicle, 2.5 μM cobinamide, or 5 μM rotenone in the absence or presence of 2.5 μM of the indicated drugs as described in Panels A, B. FIG. 3C. Cells were visualized under a fluorescence microscope and equal-sized representative areas of each condition are shown, with red and green fluorescence shown for the same area. […] The amount of red and green fluorescence was quantified by Image J analysis and the red to green ratio was calculated. The slides were analyzed by an operator who was blinded to the specific conditions. Data are the mean±SD of three independent experiments; in each experiment two separate equal-sized areas were analyzed containing ˜75 cells per area. […] Blots from four independent experiments were analyzed by densitometric scanning (Li-Cor Odyssey software) in a range where band intensity was linear. The ratio of the pJNK band to GAPDH was calculated, and the results normalized to control untreated cells. […] The UV-visible spectrum of Chi(III) in 50 mM potassium phosphate buffer, pH 7.4 was recorded before (black line) and immediately after adding a three-fold molar excess of ascorbate (blue line), cysteine (teal line), or reduced glutathione (GSH, pink line). […]

[3] = mice, same amount of cobinamide for six months; cited from earlier work

C/C1=C2/[N-][C@H]([C@H](CC(N)=O)[C@@]2(C)CCC(=O)NC[C@@H](C)O)[C@]2(C)N=C(/C(C)=C3N=C(/C=C4N=C1[C@@H](CCC(N)=O)C\4(C)C)[C@@H](CCC(N)=O)[C@]\3(C)CC(N)=O)[C@@H](CCC(N)=O)[C@]2(C)CC(N)=O.[Co+3] [cobinamide, aquohydroxo-cobinamide]
Glucose intolerance versus mice not receiving drug [1]: same degree of glucose intolerance
Reduction by ascorbate, cysteine and reduced glutathione (GSH) [2]: readily reduced to Cbi(II)
Hematological parameters [3]: did not affect hematological parameters
